Measurements published in ChEMBL document CHEMBL3436046, “Predictive model for L-type channel inhibition: multichannel block in QT prolongation risk assessment” (J Appl Toxicol, 2012).

Tests used:
[1] = target: T1, Voltage-dependent L-type calcium channel subunit alpha-1C (Rattus norvegicus, UniProt P22002); experiment: (§1) Inhibition of L-type calcium channel measured using whole-cell patch clamp in rat ventricular myocytes; type: functional, cell-based, Heart, Ventricular myocyte; parameters: ca sol conc 1 mM, temp 20-24 C
T1 sequence (P22002 whole entry): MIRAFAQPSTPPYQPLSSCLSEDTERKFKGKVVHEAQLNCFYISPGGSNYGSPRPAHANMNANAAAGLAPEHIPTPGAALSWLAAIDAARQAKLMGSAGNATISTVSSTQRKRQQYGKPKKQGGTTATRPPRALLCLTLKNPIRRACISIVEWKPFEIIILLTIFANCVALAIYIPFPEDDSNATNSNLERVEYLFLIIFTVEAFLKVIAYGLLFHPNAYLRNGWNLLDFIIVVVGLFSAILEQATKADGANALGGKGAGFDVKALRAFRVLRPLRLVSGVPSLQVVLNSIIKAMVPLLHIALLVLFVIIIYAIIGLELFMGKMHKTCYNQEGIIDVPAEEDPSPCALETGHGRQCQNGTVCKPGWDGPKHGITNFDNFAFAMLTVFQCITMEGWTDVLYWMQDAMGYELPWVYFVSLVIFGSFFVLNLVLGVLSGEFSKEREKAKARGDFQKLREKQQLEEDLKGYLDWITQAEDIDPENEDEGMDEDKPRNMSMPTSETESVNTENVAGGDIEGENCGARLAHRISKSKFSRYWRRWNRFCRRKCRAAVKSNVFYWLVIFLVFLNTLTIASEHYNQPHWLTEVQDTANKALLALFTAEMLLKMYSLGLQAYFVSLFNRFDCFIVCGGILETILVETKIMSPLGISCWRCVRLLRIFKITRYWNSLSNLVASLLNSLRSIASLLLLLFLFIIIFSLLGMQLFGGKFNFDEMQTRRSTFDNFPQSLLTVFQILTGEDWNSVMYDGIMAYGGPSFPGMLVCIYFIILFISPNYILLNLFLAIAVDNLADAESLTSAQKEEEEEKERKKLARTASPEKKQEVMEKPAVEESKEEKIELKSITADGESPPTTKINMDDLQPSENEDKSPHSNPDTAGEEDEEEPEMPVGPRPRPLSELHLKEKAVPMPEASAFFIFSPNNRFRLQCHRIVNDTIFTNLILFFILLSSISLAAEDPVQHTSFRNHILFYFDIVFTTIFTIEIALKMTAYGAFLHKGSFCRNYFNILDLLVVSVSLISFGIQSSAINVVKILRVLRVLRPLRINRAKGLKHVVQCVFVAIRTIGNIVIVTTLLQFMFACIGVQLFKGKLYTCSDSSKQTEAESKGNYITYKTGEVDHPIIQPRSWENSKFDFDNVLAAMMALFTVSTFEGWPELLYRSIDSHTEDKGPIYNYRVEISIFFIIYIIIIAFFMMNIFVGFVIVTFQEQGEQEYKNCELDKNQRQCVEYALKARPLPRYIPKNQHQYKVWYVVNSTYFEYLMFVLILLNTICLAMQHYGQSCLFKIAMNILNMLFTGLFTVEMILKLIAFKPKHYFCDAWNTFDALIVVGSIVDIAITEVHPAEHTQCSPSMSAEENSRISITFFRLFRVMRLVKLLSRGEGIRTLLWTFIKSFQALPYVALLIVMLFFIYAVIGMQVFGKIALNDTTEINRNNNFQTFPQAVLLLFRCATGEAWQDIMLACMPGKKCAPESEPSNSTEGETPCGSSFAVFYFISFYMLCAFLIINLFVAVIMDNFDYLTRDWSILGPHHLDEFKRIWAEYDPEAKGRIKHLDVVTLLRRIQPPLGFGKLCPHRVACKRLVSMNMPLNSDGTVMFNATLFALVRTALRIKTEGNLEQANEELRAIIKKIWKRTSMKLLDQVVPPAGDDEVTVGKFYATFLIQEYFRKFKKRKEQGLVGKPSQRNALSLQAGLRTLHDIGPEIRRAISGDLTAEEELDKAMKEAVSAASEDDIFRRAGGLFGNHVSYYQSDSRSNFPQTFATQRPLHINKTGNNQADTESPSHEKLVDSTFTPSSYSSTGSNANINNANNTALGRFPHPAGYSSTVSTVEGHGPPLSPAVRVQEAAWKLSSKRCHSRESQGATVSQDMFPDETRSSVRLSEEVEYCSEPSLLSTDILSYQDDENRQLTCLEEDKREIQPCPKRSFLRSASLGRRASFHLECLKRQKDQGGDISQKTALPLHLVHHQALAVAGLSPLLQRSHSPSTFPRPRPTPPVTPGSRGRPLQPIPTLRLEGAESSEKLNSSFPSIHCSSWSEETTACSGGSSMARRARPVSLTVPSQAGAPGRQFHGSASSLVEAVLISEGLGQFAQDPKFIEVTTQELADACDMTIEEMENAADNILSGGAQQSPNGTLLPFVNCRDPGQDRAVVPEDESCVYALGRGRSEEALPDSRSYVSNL

[2] = target: T2, Voltage-dependent L-type calcium channel subunit alpha-1C (Homo sapiens, UniProt Q13936); experiment: (§2) Inhibition of L-type calcium channel measured using […] kidney cells heterologically expressing alpha-1C subunit; type: functional, cell-based, HEK293; parameters: ca sol conc 0 mM, temp 21-24 C
[3] = target: T3, Voltage-dependent L-type calcium channel subunit alpha-1C (Cavia porcellus, UniProt O35505); experiment: (§3) Inhibition of L-type calcium channel measured using whole-cell patch clamp in guinea pig ventricular myocytes
T3 sequence (O35505 whole entry): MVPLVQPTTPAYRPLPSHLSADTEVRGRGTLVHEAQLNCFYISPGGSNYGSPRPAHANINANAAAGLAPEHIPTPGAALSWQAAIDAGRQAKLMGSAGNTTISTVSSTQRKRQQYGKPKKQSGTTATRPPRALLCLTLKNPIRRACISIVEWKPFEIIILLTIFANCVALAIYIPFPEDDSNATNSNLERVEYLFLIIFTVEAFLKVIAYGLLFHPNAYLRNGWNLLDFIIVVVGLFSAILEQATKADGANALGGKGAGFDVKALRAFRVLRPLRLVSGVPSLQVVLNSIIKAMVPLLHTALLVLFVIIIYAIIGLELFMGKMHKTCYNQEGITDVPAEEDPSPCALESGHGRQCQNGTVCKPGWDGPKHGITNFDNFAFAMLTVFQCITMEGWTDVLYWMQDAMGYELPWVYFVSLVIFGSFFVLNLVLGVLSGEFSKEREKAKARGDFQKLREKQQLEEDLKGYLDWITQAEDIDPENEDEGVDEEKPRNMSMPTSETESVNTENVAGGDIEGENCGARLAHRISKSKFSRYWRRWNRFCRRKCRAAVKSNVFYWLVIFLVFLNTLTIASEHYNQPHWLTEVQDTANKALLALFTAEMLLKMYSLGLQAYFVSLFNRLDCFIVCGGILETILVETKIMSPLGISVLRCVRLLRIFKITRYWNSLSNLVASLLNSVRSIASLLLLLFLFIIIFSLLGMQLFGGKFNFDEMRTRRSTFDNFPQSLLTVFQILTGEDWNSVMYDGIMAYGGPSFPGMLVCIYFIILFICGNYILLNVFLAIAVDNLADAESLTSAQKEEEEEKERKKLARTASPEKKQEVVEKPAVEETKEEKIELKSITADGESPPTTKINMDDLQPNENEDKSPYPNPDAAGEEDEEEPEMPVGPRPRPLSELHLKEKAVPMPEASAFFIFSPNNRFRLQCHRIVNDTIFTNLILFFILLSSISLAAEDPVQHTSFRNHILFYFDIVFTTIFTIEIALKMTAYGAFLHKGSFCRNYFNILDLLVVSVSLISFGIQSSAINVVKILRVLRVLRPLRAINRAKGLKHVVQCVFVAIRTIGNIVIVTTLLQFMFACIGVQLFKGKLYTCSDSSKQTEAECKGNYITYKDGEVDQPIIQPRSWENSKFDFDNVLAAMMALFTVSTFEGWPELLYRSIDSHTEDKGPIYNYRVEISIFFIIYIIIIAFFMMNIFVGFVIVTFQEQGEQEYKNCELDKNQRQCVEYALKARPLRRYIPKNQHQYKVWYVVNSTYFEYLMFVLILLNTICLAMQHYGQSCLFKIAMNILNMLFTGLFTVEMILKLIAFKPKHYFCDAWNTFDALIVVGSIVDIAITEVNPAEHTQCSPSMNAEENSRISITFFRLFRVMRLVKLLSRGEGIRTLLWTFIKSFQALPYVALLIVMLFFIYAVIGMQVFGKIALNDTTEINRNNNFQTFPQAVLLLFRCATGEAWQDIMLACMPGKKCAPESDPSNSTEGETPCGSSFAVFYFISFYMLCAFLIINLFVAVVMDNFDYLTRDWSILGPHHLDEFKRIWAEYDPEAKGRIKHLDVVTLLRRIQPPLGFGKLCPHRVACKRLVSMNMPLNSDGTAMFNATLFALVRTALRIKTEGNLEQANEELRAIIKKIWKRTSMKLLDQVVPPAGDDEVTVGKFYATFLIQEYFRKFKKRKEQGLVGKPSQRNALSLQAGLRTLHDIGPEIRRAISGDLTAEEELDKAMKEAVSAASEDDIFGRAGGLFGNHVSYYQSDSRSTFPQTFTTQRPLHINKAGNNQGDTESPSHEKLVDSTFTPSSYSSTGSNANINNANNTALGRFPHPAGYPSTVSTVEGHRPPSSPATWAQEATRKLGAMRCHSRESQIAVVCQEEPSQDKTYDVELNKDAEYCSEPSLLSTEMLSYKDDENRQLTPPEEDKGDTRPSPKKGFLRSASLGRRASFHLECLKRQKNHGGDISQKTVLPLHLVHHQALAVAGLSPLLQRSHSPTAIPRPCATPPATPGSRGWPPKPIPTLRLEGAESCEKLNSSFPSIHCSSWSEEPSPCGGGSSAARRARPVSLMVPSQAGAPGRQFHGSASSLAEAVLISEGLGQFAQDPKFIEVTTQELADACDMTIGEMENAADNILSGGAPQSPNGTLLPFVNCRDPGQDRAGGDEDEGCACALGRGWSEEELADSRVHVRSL

[4] = target: T2, Voltage-dependent L-type calcium channel subunit alpha-1C; experiment: (§4) Inhibition of L-type calcium channel measured using 2-electrode voltage-clamp in Xenopus oocyte heterologically expressing alpha-1C subunit; type: functional, cell-based; parameters: ca sol conc 0 mM, temp room
[5] = target: T2, Voltage-dependent L-type calcium channel subunit alpha-1C; experiment: as §4; type: functional, cell-based; parameters: ca sol conc 0 mM, temp room; remark: listed apart in the source
[6] = target: T3, Voltage-dependent L-type calcium channel subunit alpha-1C; experiment: as §3; type: functional, cell-based, Heart, Ventricular myocyte; parameters: ca sol conc 1.8 mM, temp 36-37 C
[7] = target: T3, Voltage-dependent L-type calcium channel subunit alpha-1C; experiment: as §3; type: functional, cell-based, Heart, Ventricular myocyte; parameters: ca sol conc 1.8 mM, temp 32-33 C
[8] = target: T3, Voltage-dependent L-type calcium channel subunit alpha-1C; experiment: as §3; type: functional, cell-based, Heart, Ventricular myocyte; parameters: ca sol conc 1.8 mM, temp room
[9] = target: T1, Voltage-dependent L-type calcium channel subunit alpha-1C; experiment: as §1; type: functional, cell-based, Heart, Ventricular myocyte; parameters: ca sol conc 1.8 mM, temp room
[10] = target: T1, Voltage-dependent L-type calcium channel subunit alpha-1C; experiment: as §1; type: functional, cell-based, Heart, Ventricular myocyte; parameters: ca sol conc 0 mM, temp room
[11] = target: T1, Voltage-dependent L-type calcium channel subunit alpha-1C; experiment: as §1; type: functional, cell-based, Heart, Ventricular myocyte; parameters: ca sol conc 2 mM, temp 36-37 C
[12] = target: T1, Voltage-dependent L-type calcium channel subunit alpha-1C; experiment: as §1; type: functional, cell-based, Heart, Ventricular myocyte; parameters: ca sol conc 2 mM, temp 36-37 C; remark: listed apart in the source
[13] = target: T3, Voltage-dependent L-type calcium channel subunit alpha-1C; experiment: as §3; type: functional, cell-based, Heart, Ventricular myocyte; parameters: ca sol conc 2 mM, temp 35.5-36.5 C
[14] = target: T2, Voltage-dependent L-type calcium channel subunit alpha-1C; experiment: Inhibition of L-type calcium channel measured using […] ovary cells heterologically expressing alpha-1C subunit; type: functional, cell-based, Cricetulus griseus, CHO; parameters: ca sol conc 0 mM, temp room
[15] = target: T3, Voltage-dependent L-type calcium channel subunit alpha-1C; experiment: as §3; type: functional, cell-based, Heart, Ventricular myocyte; parameters: ca sol conc 1 mM, temp 20 C
[16] = target: T3, Voltage-dependent L-type calcium channel subunit alpha-1C; experiment: as §3; type: functional, cell-based, Heart, Ventricular myocyte; parameters: ca sol conc 1.8 mM, temp 20-22 C
[17] = target: T1, Voltage-dependent L-type calcium channel subunit alpha-1C; experiment: as §1; type: functional, cell-based, Heart, Ventricular myocyte; parameters: ca sol conc 2 mM, temp room
[18] = target: T1, Voltage-dependent L-type calcium channel subunit alpha-1C; experiment: as §1; type: functional, cell-based, Heart, Ventricular myocyte; parameters: ca sol conc 1.8 mM, temp 22-24 C
[19] = target: T1, Voltage-dependent L-type calcium channel subunit alpha-1C; experiment: as §1; type: functional, cell-based, Heart, Ventricular myocyte; parameters: ca sol conc 1 mM, temp 1 C
[20] = target: T3, Voltage-dependent L-type calcium channel subunit alpha-1C; experiment: as §3; type: functional, cell-based, Heart, Ventricular myocyte; parameters: ca sol conc 2 mM, temp 22-26 C
[21] = target: T2, Voltage-dependent L-type calcium channel subunit alpha-1C; experiment: as §2; type: functional, cell-based, HEK293; parameters: ca sol conc 10 mM, temp room
[22] = target: T3, Voltage-dependent L-type calcium channel subunit alpha-1C; experiment: as §3; type: functional, cell-based, Heart, Ventricular myocyte; parameters: ca sol conc 0 mM, temp 36 C
[23] = target: T2, Voltage-dependent L-type calcium channel subunit alpha-1C; experiment: as §4; type: functional, cell-based; parameters: ca sol conc 0 mM, temp room; remark: listed apart in the source
[24] = target: T3, Voltage-dependent L-type calcium channel subunit alpha-1C; experiment: as §3; type: functional, cell-based, Heart, Ventricular myocyte; parameters: ca sol conc 2.5 mM, temp room

**Q.** Which IC50 [1] does the source give for `CN(C)CCN1C(=O)c2ccccc2N(C)c2ccccc21` [DIBENZEPIN] here?
**A.** Its IC50 is 364 µM.

**Q.** With `CC(C)Cn1c(=O)n(C)c(=O)c2[nH]cnc21` [ISOBUTYLMETHYLXANTHINE] as the molecule, how does the IC50 [2] read?
**A.** Its IC50 is 466 µM.

**Q.** With `CCOC(=O)C1=C(COCCN)NC(C)=C(C(=O)OC)C1c1ccccc1Cl` (centres undefined) [AMLODIPINE] as the molecule, how does the IC50 [3] read?
**A.** Its IC50 is 0.57 µM.

**Q.** Which IC50 [4] does the source give for `COCCOC(=O)C1=C(C)NC(C)=C(C(=O)OC/C=C/c2ccccc2)C1c1cccc([N+](=O)[O-])c1` (centres undefined) [CILNIDIPINE] here?
**A.** The IC50 was 12.7 µM.

**Q.** What about the IC50 [5] of the same molecule?
**A.** The IC50 was 5.3 µM.

**Q.** How did the IC50 [6] turn out when `c1ccc(C2(c3ccccc3)CC2C2=NCCN2)cc1` (centres undefined) [CIFENLINE] was run?
**A.** The IC50 was 30 µM.

**Q.** What about the IC50 [7] of the same molecule?
**A.** Its IC50 is 14.4 µM.

**Q.** And the IC50 [8]?
**A.** Its IC50 is 14 µM.

**Q.** How did the IC50 [9] turn out when `CCCC[N+]1(CCCC(=O)c2ccc(F)cc2)CCC(O)(c2ccc(Cl)cc2)CC1` (centres undefined) was run?
**A.** The IC50 was 0.17 µM.

**Q.** How did the IC50 [10] turn out when `O=C(O)Cc1ccccc1Nc1c(Cl)cccc1Cl` [DICLOFENAC] was run?
**A.** The IC50 was 12.9 µM.

**Q.** `CCCCC/C=C\C/C=C\C/C=C\C/C=C\CCCC(=O)O` [ARACHIDONIC ACID] was tested. Which IC50 [11] did it give?
**A.** Its IC50 is 5.8 µM.

**Q.** What about the IC50 [12] of the same molecule?
**A.** The IC50 was 8.5 µM.

**Q.** For `C=CCN1CCN(CC(C)(C)COC(=O)C2=C(C)NC(C)=C(C(=O)OC)C2c2cccc([N+](=O)[O-])c2)CC1` (centres undefined) [IGANIDIPINE], which IC50 [6] is on record?
**A.** The IC50 was 0.009 µM.

**Q.** Which IC50 [13] does the source give for `CN1CCCC(n2nc(Cc3ccc(Cl)cc3)c3ccccc3c2=O)CC1` (centres undefined) [AZELASTINE] here?
**A.** The IC50 was 20.2 µM.

**Q.** `CC1=C(C(=O)OCCCCCCCCCC[N+](C)(C)C)C(c2cccc3nonc23)C(C(=O)OC(C)C)=C(C)N1` (centres undefined) was tested. Which IC50 [14] did it give?
**A.** Its IC50 is 0.07 µM.

**Q.** How did the IC50 [15] turn out when `CC(NCCC(c1ccccc1)c1ccccc1)c1ccccc1` (centres undefined) [FENDILINE] was run?
**A.** The IC50 was 17 µM.

**Q.** With `Cc1cccc(CCN2CCC(C(=O)c3ccc(NS(C)(=O)=O)cc3)CC2)n1` as the molecule, how does the IC50 [16] read?
**A.** The IC50 was 441 µM.

**Q.** `CNCCCN1c2ccccc2CCc2ccccc21` [DESIPRAMINE] was tested. Which IC50 [1] did it give?
**A.** Its IC50 is 11.7 µM.

**Q.** How did the IC50 [17] turn out when `CN(C)CCC=C1c2ccccc2CCc2ccccc21` [AMITRIPTYLINE] was run?
**A.** The IC50 was 3.75 µM.

**Q.** And the IC50 [1]?
**A.** The IC50 was 23.2 µM.

**Q.** How did the IC50 [18] turn out when `O=c1c(-c2ccc(O)cc2)coc2cc(O)ccc12` [DAIDZEIN] was run?
**A.** The IC50 was 12 µM.

**Q.** `COc1ccc(C(C)=O)c(O)c1` [PAEONOL] was tested. Which IC50 [19] did it give?
**A.** Its IC50 is 561 µM.

**Q.** Which IC50 [20] does the source give for `CC(N)CCCC(C)(C)O` (centres undefined) [HEPTAMINOL] here?
**A.** The IC50 was 15.3 µM.

**Q.** With `O=C1NC(=O)C(c2ccccc2)(c2ccccc2)N1` [PHENYTOIN] as the molecule, how does the IC50 [21] read?
**A.** Its IC50 is 125 µM.

**Q.** For `Cc1cccc(C)c1N(CCCc1cccnc1)C(=O)[C@@H](C)N`, which IC50 [22] is on record?
**A.** The IC50 was 55 µM.

**Q.** What does the source list for `COC(=O)C1=C(C)NC(C)=C(C(=O)O[C@H]2CCN(Cc3ccccc3)C2)[C@H]1c1cccc([N+](=O)[O-])c1` [BARNIDIPINE]?
**A.** IC50 [23]: 1.2 µM; IC50 [5]: 3.1 µM

**Q.** With `O=c1c(-c2ccc(O)cc2)coc2cc(O)cc(O)c12` [GENISTEIN] as the molecule, how does the IC50 [24] read?
**A.** The IC50 was 20 µM.

**Q.** What about the IC50 [18] of the same molecule?
**A.** The IC50 was 11 µM.
